According to patent US20250302974A1, “LECTIN-DRUG CONJUGATES” (UNICHEM LABORATORIES LIMITED, priority 2021, published 2025):

Each compound was assayed against Sclerotium rolfsii lectin recombinant variant Rec-2, SEQ ID NO: 2 (Agroathelia rolfsii, UniProt A0A0M3KL30) (assay: O-Glycan array binding study (94 glycans)).

Compound | Estimated Kd [ug/m] | glycan binding
CC(=O)N[C@@H]1[C@@H](O[C@@H]2O[C@H](CO)[C@H](O)[C@H](O)[C@H]2O)[C@@H](O)[C@@H](CO)O[C@@H]1O [T antigen, Galβ1-3GalNAcα] | 0.319 | Main binding motifs
CC(=O)N[C@H]1[C@H](OC[C@H]2OC(O)[C@H](NC(C)=O)[C@@H](O[C@@H]3O[C@H](CO)[C@H](O)[C@H](O)[C@H]3O)[C@H]2O)O[C@H](CO)[C@@H](O)[C@@H]1O (stereo partly drawn) [core 2] | 0.212 | Main binding motifs
Sialyl T antigen | 0.670 to 1.756 | Main binding motifs
